Source: article PMC7159882, “Polyunsaturated fatty acid analogues differentially affect cardiac NaV, CaV, and KV channels through unique mechanisms” (eLife, 2020)

Key:
[1] = target: T1, Cav1.2/β3/α2δ (Homo sapiens, UniProt Q13936); test: Two-electrode voltage clamp of Cav1.2/β3/α2δ expressed in Xenopus oocytes (Ba2+ as charge carrier); type: cell-based; settings: for ICa I/I0: relative current at 0 mV
T1 construct: expressed in transfected cells; host or cells: Xenopus laevis oocytes (cRNA injection, Cav1.2:β3:α2δ 2:1:1 by weight)
T1 sequence (Q13936 1-2138 isoform Q13936-20): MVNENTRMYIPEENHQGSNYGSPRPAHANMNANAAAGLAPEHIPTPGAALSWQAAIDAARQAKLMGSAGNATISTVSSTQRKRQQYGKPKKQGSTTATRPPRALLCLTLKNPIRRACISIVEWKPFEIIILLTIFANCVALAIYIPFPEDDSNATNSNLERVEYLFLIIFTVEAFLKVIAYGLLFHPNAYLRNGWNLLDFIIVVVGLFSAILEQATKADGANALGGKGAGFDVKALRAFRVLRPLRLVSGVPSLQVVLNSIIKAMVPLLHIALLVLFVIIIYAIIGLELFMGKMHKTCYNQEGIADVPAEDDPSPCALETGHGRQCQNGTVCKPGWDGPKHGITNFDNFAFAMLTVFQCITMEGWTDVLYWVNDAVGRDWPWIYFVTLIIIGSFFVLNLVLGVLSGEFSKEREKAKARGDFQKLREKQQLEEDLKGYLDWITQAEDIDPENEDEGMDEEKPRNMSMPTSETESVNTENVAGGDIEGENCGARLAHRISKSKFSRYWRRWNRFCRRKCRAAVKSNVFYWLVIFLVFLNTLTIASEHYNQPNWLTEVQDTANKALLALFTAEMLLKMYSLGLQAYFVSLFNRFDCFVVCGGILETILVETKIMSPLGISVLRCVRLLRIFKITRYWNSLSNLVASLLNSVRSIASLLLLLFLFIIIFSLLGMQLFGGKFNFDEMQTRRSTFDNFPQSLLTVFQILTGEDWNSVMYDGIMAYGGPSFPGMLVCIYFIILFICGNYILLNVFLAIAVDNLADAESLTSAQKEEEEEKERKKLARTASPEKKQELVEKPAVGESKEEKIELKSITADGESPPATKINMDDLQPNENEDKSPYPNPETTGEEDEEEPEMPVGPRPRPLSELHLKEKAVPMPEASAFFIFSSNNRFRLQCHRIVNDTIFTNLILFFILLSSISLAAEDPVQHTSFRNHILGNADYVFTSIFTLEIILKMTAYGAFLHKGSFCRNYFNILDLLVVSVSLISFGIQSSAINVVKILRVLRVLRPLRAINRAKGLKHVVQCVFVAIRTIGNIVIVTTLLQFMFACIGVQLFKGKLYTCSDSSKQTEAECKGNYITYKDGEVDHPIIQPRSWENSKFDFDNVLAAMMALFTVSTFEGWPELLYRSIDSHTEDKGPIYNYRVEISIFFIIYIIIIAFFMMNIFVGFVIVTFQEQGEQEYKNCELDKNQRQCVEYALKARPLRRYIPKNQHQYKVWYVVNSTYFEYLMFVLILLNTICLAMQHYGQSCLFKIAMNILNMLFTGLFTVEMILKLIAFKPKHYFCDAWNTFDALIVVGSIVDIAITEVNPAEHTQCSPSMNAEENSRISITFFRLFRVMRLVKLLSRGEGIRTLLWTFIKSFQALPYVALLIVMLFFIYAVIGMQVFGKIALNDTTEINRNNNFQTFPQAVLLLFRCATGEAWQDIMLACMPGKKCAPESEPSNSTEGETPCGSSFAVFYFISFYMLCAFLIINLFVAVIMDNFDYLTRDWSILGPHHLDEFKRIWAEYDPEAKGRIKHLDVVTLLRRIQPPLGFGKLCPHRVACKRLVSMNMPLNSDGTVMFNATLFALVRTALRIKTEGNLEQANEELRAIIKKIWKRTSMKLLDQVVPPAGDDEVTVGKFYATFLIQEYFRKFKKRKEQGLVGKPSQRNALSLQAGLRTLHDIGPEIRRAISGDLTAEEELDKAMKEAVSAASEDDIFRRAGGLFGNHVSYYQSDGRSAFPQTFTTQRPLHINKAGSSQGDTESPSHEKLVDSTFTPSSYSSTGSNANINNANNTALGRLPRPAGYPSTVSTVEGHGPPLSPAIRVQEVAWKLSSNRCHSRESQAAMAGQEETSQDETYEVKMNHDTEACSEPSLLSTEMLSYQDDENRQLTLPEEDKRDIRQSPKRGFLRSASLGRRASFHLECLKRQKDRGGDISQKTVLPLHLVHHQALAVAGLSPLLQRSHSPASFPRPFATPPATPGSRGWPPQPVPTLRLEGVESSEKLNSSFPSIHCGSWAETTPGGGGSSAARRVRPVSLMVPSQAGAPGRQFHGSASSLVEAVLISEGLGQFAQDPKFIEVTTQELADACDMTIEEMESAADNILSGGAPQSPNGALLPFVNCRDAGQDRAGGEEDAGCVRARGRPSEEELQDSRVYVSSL
T1 sequence (P54286 whole entry partner): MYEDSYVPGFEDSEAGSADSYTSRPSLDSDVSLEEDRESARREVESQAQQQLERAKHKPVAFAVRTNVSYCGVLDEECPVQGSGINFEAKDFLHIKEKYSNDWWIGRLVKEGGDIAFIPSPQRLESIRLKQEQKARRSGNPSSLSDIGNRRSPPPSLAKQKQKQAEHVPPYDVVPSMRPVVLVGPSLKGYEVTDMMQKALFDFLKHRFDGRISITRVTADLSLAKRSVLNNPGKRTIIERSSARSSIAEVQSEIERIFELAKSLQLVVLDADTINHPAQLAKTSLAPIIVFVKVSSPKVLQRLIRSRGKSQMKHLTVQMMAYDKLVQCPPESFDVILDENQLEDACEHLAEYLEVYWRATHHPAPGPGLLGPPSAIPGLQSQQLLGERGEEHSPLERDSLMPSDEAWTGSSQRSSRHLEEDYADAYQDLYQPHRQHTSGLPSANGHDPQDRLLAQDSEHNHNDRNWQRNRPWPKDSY
T1 sequence (P13806 27-960 partner): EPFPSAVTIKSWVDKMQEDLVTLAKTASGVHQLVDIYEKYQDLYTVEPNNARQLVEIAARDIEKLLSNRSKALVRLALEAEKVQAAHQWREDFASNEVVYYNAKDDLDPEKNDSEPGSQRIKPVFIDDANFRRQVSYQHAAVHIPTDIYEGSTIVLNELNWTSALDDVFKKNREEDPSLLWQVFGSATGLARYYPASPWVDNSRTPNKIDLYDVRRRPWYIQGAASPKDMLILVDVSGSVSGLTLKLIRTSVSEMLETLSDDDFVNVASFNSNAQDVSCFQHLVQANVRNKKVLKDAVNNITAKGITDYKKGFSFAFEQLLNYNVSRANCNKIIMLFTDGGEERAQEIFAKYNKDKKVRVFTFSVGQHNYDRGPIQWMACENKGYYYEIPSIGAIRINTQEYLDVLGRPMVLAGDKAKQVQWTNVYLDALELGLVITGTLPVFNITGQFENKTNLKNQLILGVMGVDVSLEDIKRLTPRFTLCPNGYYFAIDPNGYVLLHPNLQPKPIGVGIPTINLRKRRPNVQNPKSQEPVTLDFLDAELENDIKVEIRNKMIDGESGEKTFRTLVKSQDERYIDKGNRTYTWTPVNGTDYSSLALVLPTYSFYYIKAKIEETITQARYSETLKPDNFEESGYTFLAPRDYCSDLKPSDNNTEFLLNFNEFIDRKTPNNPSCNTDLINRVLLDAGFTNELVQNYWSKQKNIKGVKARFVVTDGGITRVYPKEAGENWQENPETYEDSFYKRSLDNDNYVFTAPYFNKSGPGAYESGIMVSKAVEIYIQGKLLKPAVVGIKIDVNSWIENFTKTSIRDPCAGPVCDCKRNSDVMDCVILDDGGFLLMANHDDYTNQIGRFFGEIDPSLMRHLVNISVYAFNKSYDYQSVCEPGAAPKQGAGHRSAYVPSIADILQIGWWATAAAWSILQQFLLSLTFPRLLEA
T1 sequence (P13806 961-1106 partner): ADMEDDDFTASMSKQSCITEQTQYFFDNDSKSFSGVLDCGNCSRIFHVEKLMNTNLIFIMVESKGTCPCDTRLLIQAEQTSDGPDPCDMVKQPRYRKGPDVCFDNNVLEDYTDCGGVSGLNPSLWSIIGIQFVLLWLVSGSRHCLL
Procedure: Molecular Biology cRNA encoding Kv7.1 (UniProt: P51787), KCNE1 (UniProt: P15382.1), Nav1.5 (UniProt: Q14524.1), Nav β1 (UniProt: […]), Nav β3 (UniProt: […]), Cav1.2 (GenBank: CAA84346), Cav β3 (Uniprot: P54286), Cav β2 (Uniprot: P54288), and Cav α2δ (Uniprot: P13806) were transcribed using the mMessage mMachine T7 kit (Ambion). 50 ng of cRNA was injected into defolliculated Xenopus laevis oocytes (Ecocyte, Austin, TX): For Kv7.1/KCNE1 channel expression, we injected a 3:1, weight:weight (Kv7.1:KCNE1) cRNA ratio. For Nav1.5 channel expression, we injected a 2:1, weight:weight (Nav1.5:β1) cRNA ratio. For Cav1.2 channel expression, we injected a 2:1:1, weight:weight (Cav1.2:β3:α2δ) cRNA ratio. The exact stoichiometry for channel macromolecular complexes, including α -subunits and auxiliary subunits is not clear for many ion channels. For example, there have been multiple reported stoichiometries for Kv7.1:KCNE1 determined in heterologous expression systems with some groups reporting flexible stoichiometry of 4 Kv7.1: 1–4 KCNE1 and others reporting a fixed stoichiometry of 4 Kv7.1: 2 KCNE1 ([Murray et al., 2016]; [Nakajo et al., 2010]). The ratios of cRNA of α- and auxiliary subunits that we injected in Xenopus laevis oocytes are such that all α-subunits are assumed to be in complex with auxiliary subunits. This allows a more homogenous population of ion channels with auxiliary subunits. One caveat to expressing ion channels as macromolecular complexes is that there are many other auxiliary subunits that could associate with the channel α -subunit that are present in cardiomyocytes and have the potential to alter PUFA-induced effects, but that are not being co-expressed in our experiments. In this work, we are co-expressing some of the auxiliary subunits that have been primarily reported to associate with their respective α -subunits in cardiomyocytes. Following cRNA injection, cells were incubated for 72–96 hr in standard ND96 solution (96 mM NaCl, 2 mM KCl, 1 mM MgCl2, 1.8 mM CaCl2, 5 mM HEPES; pH = 7.5) containing 1 mM pyruvate at 16°C prior to electrophysiological recordings.
Xenopus laevis oocytes were recorded in the two-electrode voltage clamp (TEVC) configuration. Recording pipettes were filled with 3 M KCl. The recording chamber was filled with ND96 (96 mM NaCl, 2 mM KCl, 1 mM MgCl2, 1.8 mM CaCl2, 5 mM HEPES; pH 7.5). For Cav1.2/β3/α2δ channel recordings, Xenopus oocytes were injected with 50 nl of 100 mM EGTA and incubated at 10°C for 30 min prior to electrophysiological recordings in order to sequester cytosolic calcium. In addition, Cav1.2/β3/α2δ channel recordings were done in Ca^2+-free solutions, using Ba^2+ as the charge carrier, to prevent calcium-dependent inactivation of Cav1.2/β3/α2δ channels. Calcium-dependent inactivation was not studied in this work, due to the presence of large calcium-activated chloride currents present in Xenopus laevis oocytes. PUFAs were obtained from Cayman Chemical (Ann Arbor, MI.) or synthesized in house (Linköping, Sweden) through methods previously described ([Bohannon et al., 2020]) and kept at −20 °C as 100 mM stock solutions in ethanol. Serial dilutions of the different PUFAs were prepared from stocks to make 0.2 μM, 0.7 μM, 2 μM, 7 μM, and 20 μM concentrations in ND96 solutions (pH = 7.5). PUFAs were perfused into the recording chamber using the Rainin Dynamax Peristaltic Pump (Model RP-1) (Rainin Instrument Co., Oakland, CA. USA).
Electrophysiological recordings were obtained using Clampex 10.3 software (Axon, pClamp, Molecular Devices). To measure Kv7.1/KCNE1 currents we apply PUFAs as the membrane potential is stepped every 30 s from −80 mV to 0 mV for 5 s before stepping to −40 mV and back to −80 mV to ensure that the PUFA effects on the current at 0 mV reached steady state. A voltage-step protocol was used to measure the current vs. voltage (I-V) relationship before PUFA application and after the PUFA effects had reached steady state for each concentration of PUFA. […]

[2] = target: T2, Cav1.2/β2/α2δ (Homo sapiens, UniProt Q13936); test: Two-electrode voltage clamp of Cav1.2/β2/α2δ expressed in Xenopus oocytes; type: cell-based; settings: co-expression with β2 subunit instead of β3
T2 construct: expressed in transfected cells; host or cells: Xenopus laevis oocytes (cRNA injection; no ratio printed for the β2 combination)
T2 sequence (Q13936 1-2138 isoform Q13936-20, other chains not shown): as the sequence (Q13936 1-2138 isoform Q13936-20) above
T2 sequence (P13806 27-960 partner, other chains not shown): as the sequence (P13806 27-960 partner) above
T2 sequence (P13806 961-1106 partner, other chains not shown): as the sequence (P13806 961-1106 partner) above
Procedure: Molecular Biology cRNA encoding Kv7.1 (UniProt: P51787), KCNE1 (UniProt: P15382.1), Nav1.5 (UniProt: Q14524.1), Nav β1 (UniProt: […]), Nav β3 (UniProt: […]), Cav1.2 (GenBank: CAA84346), Cav β3 (Uniprot: P54286), Cav β2 (Uniprot: P54288), and Cav α2δ (Uniprot: P13806) were transcribed using the mMessage mMachine T7 kit (Ambion). 50 ng of cRNA was injected into defolliculated Xenopus laevis oocytes (Ecocyte, Austin, TX): For Kv7.1/KCNE1 channel expression, we injected a 3:1, weight:weight (Kv7.1:KCNE1) cRNA ratio. For Nav1.5 channel expression, we injected a 2:1, weight:weight (Nav1.5:β1) cRNA ratio. For Cav1.2 channel expression, we injected a 2:1:1, weight:weight (Cav1.2:β3:α2δ) cRNA ratio. The exact stoichiometry for channel macromolecular complexes, including α -subunits and auxiliary subunits is not clear for many ion channels. For example, there have been multiple reported stoichiometries for Kv7.1:KCNE1 determined in heterologous expression systems with some groups reporting flexible stoichiometry of 4 Kv7.1: 1–4 KCNE1 and others reporting a fixed stoichiometry of 4 Kv7.1: 2 KCNE1 ([Murray et al., 2016]; [Nakajo et al., 2010]). […]
Xenopus laevis oocytes were recorded in the two-electrode voltage clamp (TEVC) configuration. […]

[3] = system: Herg channels; design: method as in B.H. Bentzen and H. Duff, unpublished data; settings: up to 10 μM; heterologous systems; ref B.H. Bentzen and H. Duff, unpublished data; cited from earlier work

Row | Structure (SMILES) | Gmax/Gmax0 ([1]; 0.2 μM) | ΔV0.5 (voltage dependence of inactivation) ([1]; 0.2 μM) [mV] | ICa I/I0 ([1]; 0.2 μM) | Gmax/Gmax0 ([1]; 0.7 μM) | ΔV0.5 (voltage dependence of inactivation) ([1]; 0.7 μM) [mV] | ICa I/I0 ([1]; 0.7 μM) | Gmax/Gmax0 ([1]; 2 μM) | ΔV0.5 (voltage dependence of inactivation) ([1]; 2 μM) [mV] | ICa I/I0 ([1]; 2 μM) | Gmax/Gmax0 ([1]; 7 μM) | ΔV0.5 (voltage dependence of inactivation) ([1]; 7 μM) [mV] | ICa I/I0 ([1]; 7 μM) | ICa I/I0 ([1]; 7 μM, listed as pin-taurine) | Gmax/Gmax0 ([1]; 20 μM) | ΔV0.5 (voltage dependence of inactivation) ([1]; 20 μM) [mV] | ICa I/I0 ([1]; 20 μM) | ΔV0.5 (voltage dependence of inactivation) ([1]; 7 μM, listed as lin-glycine) [mV] | ICa I/I0 ([1]; 7 μM, listed as lin-glycine) | response of Cav1.2/β2/α2δ compared with Cav1.2/β3/α2δ [2] | effects on currents through Herg channels [3]
1 | CCCCC/C=C\C/C=C\CC/C=C\CCCC(=O)NCCS(=O)(=O)O [Pin-taurine] | 0.9 ± 0.1 | 2.7 ± 1.9 | 0.7 ± 0.1 | 1.0 ± 0.1 | 3.9 ± 1.9 | 0.8 ± 0.1 | 1.0 ± 0.1 | 3.7 ± 1.8 | 0.8 ± 0.1 | 0.8 ± 0.1 | 4.1 ± 2.2 | 0.7 ± 0.1 (p=0.02) | 0.7 ± 0.1 | 0.6 ± 0.1 | 6.0 ± 4.1 | 0.5 ± 0.1 |  |  |  | 
2 | CCCCC/C=C\C/C=C\CCCCCCCC(=O)NCC(=O)O [Lin-glycine] | 1.1 ± 0.03 | 0.1 ± 1.7 | 0.9 ± 0.1 | 1.1 ± 0.04 | -0.7 ± 1.8 | 0.9 ± 0.1 | 1.2 ± 0.1 | -2.9 ± 1.4 | 0.9 ± 0.1 | 1.0 ± 0.1 | −3.0 ± 1.6 |  |  | 1.0 ± 0.1 | -3.7 ± 1.5 | 0.7 ± 0.1 | -3.0 ± 1.6 | 0.8 ± 0.1 | no differences between Cav1.2/β3/α2δ and Cav1.2/β2/α2δ | 
3 | CC/C=C\C/C=C\C/C=C\C/C=C\C/C=C\C/C=C\CCC(=O)NCC(=O)O [DHA-glycine, docosahexaenoyl glycine] | 1.0 ± 0.1 | 6.1 ± 3.5 | 0.9 ± 0.1 | 1.1 ± 0.1 | 6.4 ± 4.3 | 1.0 ± 0.1 | 1.1 ± 0.1 | 6.1 ± 4.2 | 0.9 ± 0.1 | 1.0 ± 0.1 | 7.6 ± 3.1 |  |  | 1.0 ± 0.1 | 5.2 ± 4.4 | 0.9 ± 0.1 |  |  |  | neither N-AT nor DHA-glycine up to 10 μM had any significant effects
